The values below come from US20250304608A1, “PHOSPHORUS COMPOUND AND USE THEREOF” (SHANGHAI SHIJIANG BIOTECHNOLOGY CO., LTD., priority 2022, published 2025).

The subject of experiment [1] is Daoy cell transfected with empty virus vector without carrying shRNA. As to the kind of experiment: TMRM mitochondria membrane potential in Daoy cell transfected with empty virus vector (Con shRNA). In kind it is cell-based, human. Particulars: H2O2 +, CsA −, untreated = 100.
The subject of another experiment is Daoy cell. Briefly: TMRM mitochondria membrane potential in Daoy cell after CsA / H2O2 treatment. In kind it is cell-based, human. As to conditions: untreated = 100. From the text: The mitochondria permeability transition pore (mPTP) was a non-specific channel on the inner membrane of mitochondria, which could allow small molecules with molecular less than 1.5KD to pass freely, and its activity was affected by peroxides (such as H2O2), pH and calcium ions in mitochondria. […] For cells with active mitochondria permeability transition pore, adding peroxide (such as H2O2) could increase the activity of mitochondria permeability transition pore, resulting in a decrease in mitochondna membrane potential.

The test system of experiment [2] is Daoy cell transfected with virus vector carrying shRNA that induces degradation of PPIF mRNA. As to the kind of experiment: TMRM mitochondria membrane potential in Daoy cell transfected with PPIF shRNA. In kind it is cell-based, human. Particulars: H2O2 +, CsA −, untreated = 100.
A further experiment concerns mPTP-inactive Daoy cell. Briefly: CellTiter-Glo cell viability inhibition, mPTP-inactive Daoy cell. In kind it is cell-based. As to conditions: Homo sapiens, Daoy cell transfected with PPIF shRNA vector. A general note: Cellular ATP, detected with luciferase, serves as a proxy for viable cell number.
Another experiment has as its system ov-NNMT NCI-H82 cell. As to the kind of experiment: CellTiter-Glo cell viability inhibition, ov-NNMT NCI-H82 cell. In kind it is cell-based. Particulars: Homo sapiens, NCI-H82 cell overexpressing NNMT protein. From the text:
(§1) The expression of NNMT protein in NCI-H82 cell was overexpressed by inserting the NNMT gene into NCI-H82 cell using a viral vector, and the NNMT protein-overexpressing NCI-H82 cell (ov-NNMT NCI-H82 cell) was obtained. The control NCI-H82 cell (Con-NCI-H82 cell) was obtained by transfecting NCI-H82 cell with empty virus vector without carrying NNMT gene. The expressing content of NNMT protein in the Con-NCI-H82 cell and ov-NNMT NCI-H82 cell was detected using Western Blot assay (as shown in FIG. 3), it could be seen from FIG. 3 that the NNMT protein was overexpressed in the ov-NNMT NCI-H82 cell compared with the expression level of NNMT protein in the Con-NCI-H82 cell.

The next experiment concerns Con-NCI-H82 cell. Briefly: CellTiter-Glo cell viability inhibition, Con-NCI-H82 cell. In kind it is cell-based. As to conditions: Homo sapiens, NCI-H82 cell transfected with empty virus vector.
Source text: as §1

The next experiment has as its system mPTP-active Daoy cell. As to the kind of experiment: CellTiter-Glo cell viability inhibition, mPTP-active Daoy cell. In kind it is cell-based. Particulars: Homo sapiens; Daoy cell transfected with empty virus vector; CellTiter-Glo; read-out: mPTP-active Daoy cell (IC50).

For `OO` [Compound H2O2, H2O2], the “Relative TMRM signal intensity (%), mean value” in experiment [1] worked out at 79%; in experiment [2], 95%. Besides, the “Relative TMRM signal intensity (%) in Daoy cell, mean value” with Daoy cell was 82%.

By IC50 is commonly meant the concentration at which inhibition is half-maximal. In the case of `c1ccc([P+](c2ccccc2)(c2ccncc2)c2cccc3[nH]ccc23)cc1` [AB35474], the IC50 in the experiment with mPTP-inactive Daoy cell is 2.45 µM; with ov-NNMT NCI-H82 cell, 13.6 µM; in the experiment with Con-NCI-H82 cell, 3.66 µM; in the experiment on mPTP-active Daoy cell, 18.4 µM.

For `c1ccc([P+](c2ccccc2)(c2cccnc2)c2ccc3cc[nH]c3c2)cc1` [AB35472], the concentration for half-maximal inhibition (IC50) with mPTP-inactive Daoy cell worked out at 10.7 µM; in the experiment with ov-NNMT NCI-H82 cell, 19.4 µM; in the experiment on Con-NCI-H82 cell it was 8.11 µM; in the experiment on mPTP-active Daoy cell, 38.5 µM.

In the case of `COc1ccc([P+](c2ccc(OC)cc2)(c2cccc3[nH]ncc23)c2cccc3[nH]ncc23)cc1` [AB36516], the IC50 is 9.58 µM in the experiment with mPTP-inactive Daoy cell, 17.9 µM in the experiment on ov-NNMT NCI-H82 cell, 6.47 µM with Con-NCI-H82 cell and 33.1 µM with mPTP-active Daoy cell.

On to `c1ccc([P+](c2ccccc2)(c2ccc3[nH]ccc3c2)c2cc3[nH]ccc3cn2)cc1` [AB36405], for which the IC50 with mPTP-inactive Daoy cell is 1.89 µM; in the experiment on ov-NNMT NCI-H82 cell it was 3.72 µM; in the experiment with Con-NCI-H82 cell, 0.98 µM; in the experiment on mPTP-active Daoy cell, 5.45 µM.
